Laboratory results from patent US4937230A, “Method of healing wounds in horses” (ProCyte Corporation, priority 1987, dated 1990).

Assays:
[1] = tested on: barbed-wire cuts/gashes; test: Barbed-wire cuts/gashes, topical treatment of horses E, F and G; type: in vivo, horse
Text: (1) History: The skin of the hoof area of horse E was badly torn from barbed-wire.
Treatment: A cream base containing 0.4% GHL:CU and 6% DMSO was applied to the area 2 times/day.
(2) History: A 33-year-old horse (horse F) received a serious barbed wire wound to the lower leg directly into the cleft of the hoof. The wound area was ripped open, thereby dividing the hoof.
Treatment: A cream base with 0.4% GHL-CU and 6% DMSO was applied 1-2 times/day.
(3) History: A very deep barbed-wire induced gash on the upper rear leg of horse G was originally treated with antibiotics and closed with stitches.
Treatment: A cream containing 0.4% GHL-CU and 6% DMSO was applied for 2 weeks (1-2 times/day).

[2] = tested on: infected fly bites (raised nodules in the saddle region); test: Saddle sores from fly bites, topical treatment of horse A; type: in vivo; details: cream base 0.4% GHL-CU and 6% DMSO, topical twice/daily
Text: History: Horse A suffered from fly bites which became infected and developed into irritating raised nodules located on the back in the saddle region over a period of 8 weeks.
Treatment: A cream base containing 0.4% GHL-CU and 6% DMSO was applied twice/daily to the nodules. Within 4-5 days, softening of the nodules occurred along with diminishment of irritation and inflammation. Total healing occurred within 10-14 days.

[3] = tested on: denuded area after injury (poor regrowth of hair); test: Denuded area after injury, topical treatment of horses B and C; type: in vivo, horse; details: cream base 0.4% GHL-CU and 6% DMSO
Experimental: (1) History: Approximately 2 months following wounding (lower leg, cause unspecified) healing occurred in horse B with poor regrowth of hair. The affected area measured approximately 2 square inches
Treatment: A cream base containing 0.4% GHL-CU and 6% DMSO was applied to the denuded area 3-4 times/week. Substantial hair growth was noted after treatment for approximately 2-3 weeks.
(2) History: An ulcerative sore on the back of Horse C below the saddle horn area (withers) was treated by a veterinarian using antibiotics and an antibacterial spray. […] Hair was absent from the partially healed sore.
Treatment: A cream base consisting of 0.4% GHL-CU and 6% DMSO was applied 1-2 times/day. Within 3 weeks, the infected ulcerative area resolved and hair was noted to be covering the wound.

[4] = tested on: puncture wound; test: Puncture wound, topical treatment of horse D; type: in vivo; details: upper leg, cream base 0.4% GHL-CU and 3% DMSO, twice/day
Experimental: History: A puncture wound of unknown origin occurred to the upper leg of horse D. No traditional therapy (antibiotics) was used prior to treatment.
Treatment: A cream base containing 0.4% GHL-CU and 3% DMSO was applied to the wound site shortly after the wound was discovered. […] The treatment was performed twice/day.

[5] = tested on: rope burn; test: Rope burn, topical treatment of horse H; type: in vivo; details: rear ankle, cream base 0.4% GHL-CU and 6% DMSO, 2 times/day
Text: The rope burn had removed all hair and skin. A veterinarian treated the burn with antibiotics and a nitrofurosone ointment. The scab was removed daily with washing. The injury responded, although quite slowly.
Treatment: A cream base with 0.4% GHL-CU and 6% DMSO was applied to the burn 2 times/day. The scab was left on the area during the treatment period.

[6] = tested on: ulcerating pressure-induced injury; test: Ulcerating pressure-induced injury, topical treatment of horse J; type: in vivo
Text: History: A 12-year-old thoroughbred (horse J) developed a large ulcer (2 inch diameter) on top of the withers (back beneath saddle horn area) A veterinarian treated the wound with antibiotics and an antibacterial spray. […] The wound continued to be large and inflamed after 3-4 months
Treatment: A cream containing 0.4% GHL:Cu with 6% DMSO was applied 1-2 times/day. The old scab fell off after a few days and was replaced by a new scab. After 2 weeks, the infection cleared up and ulceration began to be replaced by a skin covering. […] Approximately 1 month after beginning treatment, the ulcerative injury had resolved totally.

[7] = tested on: granulation tissue ("proud flesh"); test: Excessive accumulation of granulation tissue (proud flesh), topical treatment of horse K; type: in vivo; details: cream base 0.4% GHL:CU and 3% DMSO for one month
Text: History: An accumulation of unsightly granulation tissue or granuloma (known as "proud flesh") was present over a poorly healed wound (sight unspecified) in horse K. Typically, proud flesh often accompanies an insufficiently healing wound, appearing bubbly, swollen and nodular.

[8] = tested on: full-thickness skin loss wound; test: Full-thickness skin loss, topical treatment of horse I; type: in vivo
Text: History: Horse I suffered from a traumatic injury to the anterior mid-calf aspect of the rear leg, caused by striking a fence while jumping. A flap of skin initially remained over the approximately 2.5 inch diameter wound. The leg was bandaged for a brief time, and the dead skin flap removed within 10 days post-injury. The leg appeared swollen and inflamed.
Inflammation and swelling had also diminished.

[9] = horse F, cream base 0.4% GHL-CU and 6% DMSO, 1-2 times/day

NC(=O)N/N=C/c1ccc([N+](=O)[O-])o1 [nitrofurosone, reference compound]
effect of prior treatment on the dehisced wound ([1]; horse G, 0.2% antibacterial agent): ineffective

Glycyl-L-Histidy-L-Lysine: Copper(II) [GHL:Cu]
time to softening of the nodules with diminishment of irritation and inflammation [2]: 4 to 5 days
time to total healing [2]: 10 to 14 days
treatment time after which substantial hair growth was noted ([3]; horse B, lower leg, about 2 square inches, 3-4 times/week): 2-3 weeks
time to resolution of infected ulcerative area with hair covering the wound ([3]; horse C, ulcerative sore on the back, 1-2 times/day): ≤ 3 weeks
healing of the wound [4]: healed within a few days
infection of the wound [4]: did not become infected
time until the wound scabbed over ([1]; horse E, hoof area, cream base 0.4% GHL:CU and 6% DMSO, 2 times/day): 5 days
examination of the wound 3 weeks after treatment ([1]; horse E, hoof area, treatment halted after 5 days): no evidence of infection
new scab formation with reduction in wound size ([1]; horse F, lower leg/hoof cleft, cream base 0.4% GHL-CU and 6% DMSO, 1-2 times/day): within a few days
time to almost total healing [1, 9]: ≤ 4 weeks
wound course over 2 weeks of treatment [1, 9]: continuation of wound reduction and scab covering
scab formation over open, raw tissue ([1]; horse G, dehisced gash upper rear leg, 6 inches x 1 inch, cream 0.4% GHL-CU and 6% DMSO, 1-2 times/day for 2 weeks): A scab formed quickly
wound closure ([1]; horse G, cream 0.4% GHL-CU and 6% DMSO, 1-2 times/day for 2 weeks): Within weeks, the wound had begun to close and appeared healthy
granulation of the gash ([1]; horse G, noted when scab was removed during cleaning): granulated considerably
hair regrowth [5]: hair grew back over the area
healing of the wound ([5]; scab left on): healed up within a week
time until infection cleared up and ulceration began to be replaced by skin covering ([6]; 2 inch diameter ulcer on withers, cream 0.4% GHL:Cu with 6% DMSO, 1-2 times/day): 2 weeks
time until ulcerative injury had resolved totally ([6]; cream 0.4% GHL:Cu with 6% DMSO, 1-2 times/day): Approximately 1 month
hair growth over the area ([6]; shortly after 2 weeks): hair began growing over the area
swelling and appearance of proud flesh [7]: notable reduction in swelling and improved appearance

Glycyl-L-Histidyl-L-Lysine octyl ester:Copper (II) [GHL-octyl ester Cu]
wound size under continued treatment ([8]; 1 time/day over the following week): continued to decrease in size
reduction of wound size ([8]; about 2.5 inch diameter wound, cream base 0.4% GHL-octyl ester Cu and 6% DMSO, 2 times/day for 2 weeks): ~50%
inflammation and swelling ([8]; after 2 weeks, 2 times/day): diminished
scab formation ([8]; after 2 weeks, 2 times/day): a scab had formed over the area
